# Results: patent US20260325561A1, “4'-SUBSTITUTED NUCLEOSIDES AND NUCLEOTIDES AS ANTIVIRAL AGENTS” (THE SCRIPPS RESEARCH INSTITUTE, priority 2023, published 2026)
# Tests used:
# DENV-2 = assay: microbe, parasite or virus in culture; format: cell-based, DENV-2 16681; settings: Dengue virus, DENV2, HepG2, 24 h, read-out: DENV-2 / HepG2 EC50
# CHIKV = assay: microbe, parasite or virus in culture; format: cell-based, CHIKV strain 181/25; settings: Chikungunya virus, HepG2, 24 h, read-out: CHIKV / HepG2 EC50
# SARS-CoV-2 = assay: microbe, parasite or virus in culture; format: cell-based, SARS-CoV-2 strain USA-WA1/2020; settings: Severe acute respiratory syndrome coronavirus 2, HeLa-ACE2, 24 h, read-out: SARS-CoV-2 / HeLa-ACE2 EC50
# in vitro [1] = settings: human, hela-ace2 cells
# in vitro [2] = settings: human, hepg2 cells
# HRV 14 = assay: microbe, parasite or virus in culture; format: cell-based, Human Rhinovirus 14 strain 1059; settings: Rhinovirus B, H1-HeLa, 48 h, read-out: HRV / H1 HeLa B 14 EC50
# in vitro [3] = settings: human, h1 hela cells
# RSV A2 = assay: microbe, parasite or virus in culture; format: cell-based; settings: human respiratory syncytial virus, HEp-2, 72 h, read-out: RSV A2 / Hep2 EC50
# ZIKV = assay: microbe, parasite or virus in culture; format: cell-based, ZIKV MR766; settings: Zika virus, HepG2, 24 h, read-out: ZIKV / HepG2 EC50
# in vitro [4] = settings: human, hep2 cells
# YFV = assay: microbe, parasite or virus in culture; format: cell-based, YFV strain 17D; settings: Yellow fever virus, HepG2, 24 h, read-out: YFV / HepG2 EC50
# HCMV = assay: HCMV/HFF antiviral assay; format: cell-based; settings: Human betaherpesvirus 5, HFF
# Cytotoxicity, HFF = format: cell-based; settings: human, hff cells; read-out: HCMV/HFF CC50
# HRV 16 = assay: microbe, parasite or virus in culture; format: cell-based, Human Rhinovirus 16 strain 11757; settings: Rhinovirus A, H1-HeLa, 48 h, read-out: HRV / H1 HeLa A16 EC50
SMILES,EC50 (DENV-2),EC50 (CHIKV),EC50 (SARS-CoV-2),CC50 at 24 h (in vitro [1]),CC50 at 72 h (in vitro [2]),EC50 (HRV 14),CC50 (in vitro [3]),EC50 (RSV A2),EC50 (ZIKV),CC50 (in vitro [4]),EC50 (YFV),EC50 (HCMV),"CC50 (Cytotoxicity, HFF)",EC50 (HRV 16)
"[N-]=[N+]=N[C@]1(CO)O[C@@H](n2ccc3c(N)ncnc32)[C@H](O)[C@@H]1O [Example 2, (2R,3S,4R,5R)-5-(4-amino-7H-pyrrolo[2,3-d]pyrimidin-7-yl)-2-azido-2-(hydroxymethyl)tetrahydrofuran-3,4-diol]",> 10 µM,> 10 µM,> 10 µM,> 99 µM,> 99 µM,,,,,,,,,
"OC[C@]1(F)O[C@@H](n2ccc3c(Cl)ncnc32)[C@H](O)[C@@H]1O [Example 5, (2R,3S,4R,5R)-5-(4-chloro-7H-pyrrolo[2,3-d]pyrimidin-7-yl)-2-fluoro-2-(hydroxymethyl)tetrahydrofuran-3,4-diol]",0.1 to 1 µM,,> 10 µM,> 99 µM,> 99 µM,1 to 10 µM,> 99 µM,> 10 µM,1 to 10 µM,> 99 µM,1 to 10 µM,,,
"Nc1ncnc2c1ccn2[C@@H]1O[C@](F)(CO)[C@@H](O)[C@]1(F)Cl [Example 6, (2S,3R,4S,5R)-5-(4-amino-7H-pyrrolo[2,3-d]pyrimidin-7-yl)-4-chloro-2,4-difluoro-2-(hydroxymethyl)tetrahydrofuran-3-ol]",> 10 µM,,> 10 µM,> 99 µM,> 99 µM,> 10 µM,> 99 µM,> 10 µM,,> 99 µM,,> 10 µM,> 99 µM,
"[N-]=[N+]=N[C@]1(CO)O[C@@H](n2ccc3c(N)ncnc32)[C@@](F)(Cl)[C@@H]1O [Example 7, (2R,3R,4S,5R)-5-(4-amino-7H-pyrrolo[2,3-d]pyrimidin-7-yl)-2-azido-4-chloro-4-fluoro-2-(hydroxymethyl)tetrahydrofuran-3-ol]",> 10 µM,,> 10 µM,> 99 µM,> 99 µM,> 10 µM,> 99 µM,> 10 µM,,> 99 µM,,> 10 µM,> 99 µM,
"O=c1[nH]cnc2c1ccn2[C@@H]1O[C@](F)(CO)[C@@H](O)[C@H]1O [Example 16, 7-((2R,3R,4S,5S)-5-fluoro-3,4-dihydroxy-5-(hydroxymethyl)tetrahydrofuran-2-yl)-3,7-dihydro-4H-pyrrolo[2,3-d]pyrimidin-4-one]",> 10 µM,,> 10 µM,> 99 µM,> 99 µM,> 10 µM,> 99 µM,> 10 µM,,> 99 µM,,> 10 µM,> 99 µM,> 10 µM
"Nc1ncnc2c1c(CO)cn2[C@@H]1O[C@](F)(CO)[C@@H](O)[C@H]1O [Example 17, (2S,3S,4R,5R)-5-(4-amino-5-(hydroxymethyl)-7H-pyrrolo[2,3-d]pyrimidin-7-yl)-2-fluoro-2-(hydroxymethyl)tetrahydrofuran-3,4-diol]",> 10 µM,> 10 µM,> 10 µM,> 99 µM,10 to 99 µM,,,,,,,,,
"Nc1ncnn2c([C@@H]3O[C@](F)(CO)[C@@H](O)[C@H]3O)cnc12 [Example 19, (2S,3S,4R,5S)-5-(4-aminoimidazo[2,1-f][1,2,4]triazin-7-yl)-2-fluoro-2-(hydroxymethyl)tetrahydrofuran-3,4-diol]",0.1 to 1 µM,0.1 to 1 µM,1 to 10 µM,1 to 10 µM,< 1 µM,> 10 µM,1 to 10 µM,> 10 µM,,1 to 10 µM,,,,> 10 µM
"Nc1ncnc2c1ccn2[C@@H]1O[C@@](CO)(CF)[C@@H](O)[C@H]1O [Example 20, (2R,3S,4R,5R)-5-(4-amino-7H-pyrrolo[2,3-d]pyrimidin-7-yl)-2-(fluoromethyl)-2-(hydroxymethyl)tetrahydrofuran-3,4-diol]",> 10 µM,> 10 µM,> 10 µM,10 to 99 µM,> 99 µM,> 10 µM,> 99 µM,> 10 µM,,10 to 99 µM,,> 10 µM,> 99 µM,> 10 µM
"Nc1ncnc2c1ccn2[C@@H]1C[C@](F)(CO)[C@@H](O)[C@H]1O [Example 30, (1S,2S,3S,5R)-5-(4-amino-7H-pyrrolo[2,3-d]pyrimidin-7-yl)-3-fluoro-3-(hydroxymethyl)cyclopentane-1,2-diol]",> 10 µM,> 10 µM,> 10 µM,10 to 99 µM,10 to 99 µM,> 10 µM,10 to 99 µM,0.1 to 1 µM,,1 to 10 µM,,,,> 10 µM
"Nc1nc(F)nc2c1ncn2[C@@H]1O[C@](F)(CO)[C@@H](O)[C@H]1O [Example 31, (2S,3S,4R,5R)-5-(6-amino-2-fluoro-9H-purin-9-yl)-2-fluoro-2-(hydroxymethyl)tetrahydrofuran-3,4-diol]",0.1 to 1 µM,0.1 to 1 µM,1 to 10 µM,1 to 10 µM,< 1 µM,> 10 µM,1 to 10 µM,> 10 µM,,< 1 µM,,,,> 10 µM
"N#C[C@]1(CO)O[C@@H](n2ccc3c(N)ncnc32)[C@H](O)[C@@H]1O [Example 32, (3S,4R,5R)-5-(4-amino-7H-pyrrolo[2,3-d]pyrimidin-7-yl)-3,4-dihydroxy-2-(hydroxymethyl)tetrahydrofuran-2-carbonitrile]",> 10 µM,> 10 µM,> 10 µM,> 99 µM,> 99 µM,> 10 µM,> 99 µM,> 10 µM,,> 99 µM,,,,> 10 µM
"CNc1ncnc2c1c(F)cn2[C@@H]1O[C@](F)(CO)[C@@H](O)[C@H]1O [Example 35, (2S,3S,4R,5R)-2-fluoro-5-(5-fluoro-4-(methylamino)-7H-pyrrolo[2,3-d]pyrimidin-7-yl)-2-(hydroxymethyl)tetrahydrofuran-3,4-diol]",> 10 µM,,> 10 µM,> 99 µM,10 to 99 µM,> 10 µM,10 to 99 µM,> 10 µM,> 10 µM,10 to 99 µM,1 to 10 µM,,,
"OC[C@@]1(F)O[C@@H](n2cc(Cl)c3cncnc32)[C@H](O)[C@@H]1O [Example 36, (2S,3S,4R,5R)-5-(5-chloro-7H-pyrrolo[2,3-d]pyrimidin-7-yl)-2-fluoro-2-(hydroxymethyl)tetrahydrofuran-3,4-diol]",< 0.1 µM,,0.1 to 1 µM,1 to 10 µM,< 1 µM,> 10 µM,10 to 99 µM,1 to 10 µM,,10 to 99 µM,,0.1 to 1 µM,1 to 10 µM,
"Nc1nc2c(ncn2[C@H]2C[C@H](O)[C@@](F)(CO)O2)c(=O)[nH]1 [Example 40, 2-amino-9-((2R,4S,5S)-5-fluoro-4-hydroxy-5-(hydroxymethyl)tetrahydrofuran-2-yl)-1,9-dihydro-6H-purin-6-one]",> 10 µM,,> 10 µM,> 99 µM,> 99 µM,,,,> 10 µM,,> 10 µM,,,
"CCOc1nc(N)nc2c1ncn2[C@@H]1O[C@](F)(CO)[C@@H](O)C1(F)F [Example 60, (2S,3R,5R)-5-(2-amino-6-ethoxy-9H-purin-9-yl)-2,4,4-trifluoro-2-(hydroxymethyl)tetrahydrofuran-3-ol]",> 10 µM,,> 10 µM,> 99 µM,> 99 µM,> 10 µM,> 99 µM,> 10 µM,,> 99 µM,,> 10 µM,> 99 µM,
"Nc1nc2c(ncn2[C@@H]2O[C@](F)(CO)[C@@H](O)C2(F)F)c(=O)[nH]1 [Example 71, 2-amino-9-((2R,4R,5S)-3,3,5-trifluoro-4-hydroxy-5-(hydroxymethyl)tetrahydrofuran-2-yl)-1,9-dihydro-6H-purin-6-one]",> 10 µM,,> 10 µM,> 99 µM,> 99 µM,> 10 µM,> 99 µM,> 10 µM,,> 99 µM,,> 10 µM,,
